Among the data in patent US20240317721A1, “PYRAZOLYL DERIVATIVES AS INHIBITORS OF THE KRAS MUTANT PROTEIN” (NOVARTIS AG, priority 2021, published 2024) are IC50 values, retold here.

The target of this assay is KRasG12C (M1-K169, biotinylated on the N-terminus) (Homo sapiens (Human), UniProt P01116, G12C). Nature of the assay: Covalent competition assay: scintillation proximity assay (SPA) quantifying covalent modification of KRASG12C. The format is binding. The conditions noted are these: competition with radiolabeled covalent probe (Compound B/Compound A), 2 hours incubation, 10 nM KRasG12C. In a few lines:
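Scintillation proximity readout after streptavidin bead capture (30 min) of biotinylated KRasG12C(M1-K169):GDP, 10 nM final, which was covalently labelled over 2 h by 25 nM radio-probe plus 475 nM cold probe unless blocked by compound.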
On the technique in general: In a scintillation proximity assay essentially only radioactivity close to the scintillant gives light.
As to `C=CC(=O)N1CC2(CC(n3nc(N4CCN(C5COC5)CC4(C)C)c(-c4c(Cl)c(C)cc5[nH]ncc45)c3C)C2)C1` (single isomer, unassigned) [Example 67b, 1-(6-(4-(5-chloro-6-methyl-1H-indazol-4-yl)-3-(2,2-dimethyl-4-(oxetan-3-yl)piperazin-1-yl)-5-methyl-1H-pyrazol-1-yl)-2-azaspiro[3.3]heptan-2-yl)prop-2-en-1-one], the 50% inhibitory concentration (IC50) (usually the concentration at which inhibition is half-maximal) was found to be 38 nM.
The value for `C=CC(=O)N1CC2(CC(n3nc(N4CCN(C5CCOCC5)C[C@]4(C)C(F)F)c(-c4c(Cl)c(C)cc5[nH]ncc45)c3C)C2)C1` (single isomer, unassigned) [Example 151b] was more than 5000 nM; that for `C=CC(=O)N1CC2(CCC(n3nc(N4CCN(C(C)=O)CC4)c(-c4c(Cl)ccc5[nH]ncc45)c3C)C2)C1` (single isomer, unassigned) [Example 53d, 1-(6-(3-(4-acetylpiperazin-1-yl)-4-(5-chloro-1H-indazol-4-yl)-5-methyl-1H-pyrazol-1-yl)-2-azaspiro[3.4]octan-2-yl)prop-2-en-1-one] was 9030 nM.
With `C=CC(=O)N1CC2(CC(n3nc(N4CC[C@@H](CN5CC6(CCN(S(C)(=O)=O)C6)C5)CC4(C)C)c(-c4c(Cl)c(Cl)cc5[nH]ncc45)c3C)C2)C1` (single isomer, unassigned) [Example 297a], the half-inhibitory concentration (IC50) is more than 5000 nM.
With `C=CC(=O)N1CC2(CC(n3nc(N4CC[C@@H](CN5CC6(CCOC6)C5)CC4(C)C)c(-c4c(Cl)c(Cl)cc5[nH]ncc45)c3C)C2)C1` (single isomer, unassigned) [Example 316a], the IC50 is 1200 nM.
The value for `C=CC(=O)N1CC2(CC(n3nc(N4CCC(N(C)C5COC5)CC4(C)C)c(-c4c(Cl)c(Cl)cc5[nH]ncc45)c3C)C2)C1` (single isomer, unassigned) [Example 50b, 1-(6-(4-(5,6-dichloro-1H-indazol-4-yl)-3-(2,2-dimethyl-4-(methyl(oxetan-3-yl)amino)piperidin-1-yl)-5-methyl-1H-pyrazol-1-yl)-2-azaspiro[3.3]heptan-2-yl)prop-2-en-1-one] was 5 nM; that for `C=CC(=O)N1CC2(CC(n3nc(N4CCC(CN5CCOCC5)C4(C)C)c(-c4c(Cl)c(Cl)cc5[nH]ncc45)c3C)C2)C1` (single isomer, unassigned) [Example 218b, 1-(6-(4-(5,6-dichloro-1H-indazol-4-yl)-3-(2,2-dimethyl-3-(morpholinomethyl)pyrrolidin-1-yl)-5-methyl-1H-pyrazol-1-yl)-2-azaspiro[3.3]heptan-2-yl)prop-2-en-1-one] was more than 5000 nM; that for `C=CC(=O)N1CC2(CC(n3nc(N4CC[C@@H](CN5CCO[C@@H](CO)C5)CC4(C)C)c(-c4c(Cl)c(Cl)cc5[nH]ncc45)c3C)C2)C1` (single isomer, unassigned) [Example 247b] was 9 nM.
For `C=CC(=O)N1CC2(CC(n3nc(N4CCN(C5COC5)C5COCC54)c(-c4c(Cl)c(C)cc5[nH]ncc45)c3C)C2)C1` (single isomer, unassigned) [Example 136a, 1-(6-(4-(5-chloro-6-methyl-1H-indazol-4-yl)-5-methyl-3-((4aS*,7aS*)-4-(oxetan-3-yl)hexahydrofuro[3,4-b]pyrazin-1(2H)-yl)-1H-pyrazol-1-yl)-2-azaspiro[3.3]heptan-2-yl)prop-2-en-1-one], the IC50 is 846 nM.
The value for `C=CC(=O)N1CC2(CC(n3nc(N4CCN(C(C)=O)CC4(C)C)c(-c4c(Cl)c(C)cc5[nH]ncc45)c3C3CC3)C2)C1` (single isomer, unassigned) [Example 24b, 1-(6-(3-(4-acetyl-2,2-dimethylpiperazin-1-yl)-4-(5-chloro-6-methyl-1H-indazol-4-yl)-5-cyclopropyl-1H-pyrazol-1-yl)-2-azaspiro[3.3]heptan-2-yl)prop-2-en-1-one] was 167 nM.
